Key:
[1] = biological target: T1, EGFR TMLR (T790M/L858R), H1975 cell line (Homo sapiens, UniProt P00533, L858R/T790M); assay: HTRF Phospho EGFR TMLR Assay (Cellular); assay type: cell-based; conditions: H1975 cells, 16 hours compound incubation
T1 construct: H1975 cell line (CRL-5908; Lot BA70803) was obtained from American Type Culture Collection; host or cells: H1975
Protocol: HTRF Phospho EGFR TMLR Assay (Cellular)
H1975 cell line (CRL-5908; Lot BA70803) was obtained from American Type Culture Collection (Manassas, Va., USA). Cells were maintained at 37° C., 5% CO2 in complete Media RPMI 1640 without phenol red containing 0.3 mg/ml glutamine, 100 IU/ml penicillin, and […] streptomycin (Gibco, 15140-122) supplemented with 10% fetal bovine serum (FBS, Gibco, 10091-148). Compounds were diluted into starving medium RPMI 1640 Media (Gibco, 11835-030) without phenol red containing 0.3 mg/ml glutamine, 100 IU/ml penicillin, and […] streptomycin (Gibco).
Cells were cultured for 24 h in a 384-well plate (Greiner Bio-One, Nr. 784-080; 5000 cells/well) using 8 μl of complete medium/well. Then 4 μl/well of the 3× compound solution, containing a factor 3 dilution series of the compound or DMSO in starving medium, were added to the cells (final DMSO 0.33%). After 16 hours at 37° C., 5% CO2, 95% rel. humidity cells were lysed by adding to the compound mix 4 μl/well of the supplemented lysis buffer (Cis-bio, Phospho-EGFR HTRF kit, 64EG1PEH), followed by incubation for 30 min at room temperature with shaking (400 rpm). Then 4 μl of a mixture of anti-Phospho-EGFR Cryptate and of anti-Phospho-EGFR-d2 antibody solutions prepared in the detection buffer was added. The plates were then incubated for 4 h at room temperature before reading the fluorescence emission at 620 and 665 nm using an Envision reader (Perkin Elmer).

[2] = biological target: T2, EGFR TMLRCS (T790M/L858R/C797S), BaF3-TMLRCS cell line (Homo sapiens, UniProt P00533, C797S/L858R/T790M); assay: HTRF Phospho EGFR TMLRCS Assay (Cellular); assay type: cell-based; conditions: BaF3-TMLRCS cells, 4 hours compound incubation
T2 construct: host or cells: BaF3
Protocol: HTRF Phospho EGFR TMLRCS Assay (Cellular)
BaF3-TMLRCS cell line were obtained from Crownbio (San Diego, Calif., USA). Cells were maintained at 37° C., 5% CO2 in RPMI ATCC (Gibco 31870) +2mM Glutamine+0.5 μg/ml Puromycin supplemented with 10% fetal bovine serum (FBS) (Gibco).
Cells are transferred as above to Greiner Bio-One, Nr. 784-08 micro-titerplate at 20000 cells/well in 12.5 μl of growth medium/well after the plates had been pre-filled with 12.5 nl of DMSO solutions of the to be tested compounds (in dose response) or DMSO only. After spinning the plates at 300×g for 30 seconds the cells were incubated for 4 hours at 37 C, 5% CO2, 95% humidity. The cells were lysed by adding to the compound mix 4 μl/well of the supplemented lysis buffer (Cis-bio, Phospho-EGFR HTRF kit, 64EG1PEH), followed by incubation for 30 min at room temperature with shaking (400 rpm). The plates were then frozen and stored overnight at −80 C. On the next day and after thawing the plates, 4 μl of a mixture of anti-Phospho-EGFR Cryptate and of anti-Phospho-EGFR-d2 antibody solutions prepared in the supplied detection buffer was added to each well. The lidded plates were then incubated for 4 h at room temperature before reading the fluorescence emission at 616 and 665 nm using an Envision reader (Perkin Elmer). Data was analyzed in similar fashion as above using the normalized ratio of the 665 to 616 signals multiplied by 10000.

T2 sequence (P00533 25-1210 T790M/C797S/L858R): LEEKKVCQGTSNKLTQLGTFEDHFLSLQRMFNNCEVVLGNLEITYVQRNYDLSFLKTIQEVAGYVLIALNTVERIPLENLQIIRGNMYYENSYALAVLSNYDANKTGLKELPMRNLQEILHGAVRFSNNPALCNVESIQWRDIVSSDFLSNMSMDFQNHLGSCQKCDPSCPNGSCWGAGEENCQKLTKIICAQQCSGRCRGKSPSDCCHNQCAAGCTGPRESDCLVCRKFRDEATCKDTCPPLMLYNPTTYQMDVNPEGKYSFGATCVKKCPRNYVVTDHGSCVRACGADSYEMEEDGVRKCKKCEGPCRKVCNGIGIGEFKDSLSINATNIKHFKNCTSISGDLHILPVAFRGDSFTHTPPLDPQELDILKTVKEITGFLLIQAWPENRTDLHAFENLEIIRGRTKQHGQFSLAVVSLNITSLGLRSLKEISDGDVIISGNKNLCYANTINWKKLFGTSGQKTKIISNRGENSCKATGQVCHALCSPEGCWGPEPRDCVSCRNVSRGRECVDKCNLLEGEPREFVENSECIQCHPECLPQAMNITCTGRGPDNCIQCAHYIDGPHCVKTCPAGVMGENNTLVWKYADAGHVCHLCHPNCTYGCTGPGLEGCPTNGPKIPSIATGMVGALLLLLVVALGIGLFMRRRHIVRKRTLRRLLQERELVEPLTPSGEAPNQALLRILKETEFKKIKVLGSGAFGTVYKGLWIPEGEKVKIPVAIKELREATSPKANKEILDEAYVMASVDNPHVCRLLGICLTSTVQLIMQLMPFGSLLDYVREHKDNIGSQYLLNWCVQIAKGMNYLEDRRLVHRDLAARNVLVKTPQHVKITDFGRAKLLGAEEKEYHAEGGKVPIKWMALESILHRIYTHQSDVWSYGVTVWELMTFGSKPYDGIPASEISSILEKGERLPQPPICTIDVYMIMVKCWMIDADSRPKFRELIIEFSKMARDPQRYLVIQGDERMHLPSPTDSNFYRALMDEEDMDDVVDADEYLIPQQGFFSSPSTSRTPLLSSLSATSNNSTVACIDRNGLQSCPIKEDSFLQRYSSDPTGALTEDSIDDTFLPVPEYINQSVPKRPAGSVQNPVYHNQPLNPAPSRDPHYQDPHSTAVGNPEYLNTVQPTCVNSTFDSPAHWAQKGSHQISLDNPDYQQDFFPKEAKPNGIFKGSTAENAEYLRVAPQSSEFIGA
T1 sequence (P00533 25-1210 T790M/L858R): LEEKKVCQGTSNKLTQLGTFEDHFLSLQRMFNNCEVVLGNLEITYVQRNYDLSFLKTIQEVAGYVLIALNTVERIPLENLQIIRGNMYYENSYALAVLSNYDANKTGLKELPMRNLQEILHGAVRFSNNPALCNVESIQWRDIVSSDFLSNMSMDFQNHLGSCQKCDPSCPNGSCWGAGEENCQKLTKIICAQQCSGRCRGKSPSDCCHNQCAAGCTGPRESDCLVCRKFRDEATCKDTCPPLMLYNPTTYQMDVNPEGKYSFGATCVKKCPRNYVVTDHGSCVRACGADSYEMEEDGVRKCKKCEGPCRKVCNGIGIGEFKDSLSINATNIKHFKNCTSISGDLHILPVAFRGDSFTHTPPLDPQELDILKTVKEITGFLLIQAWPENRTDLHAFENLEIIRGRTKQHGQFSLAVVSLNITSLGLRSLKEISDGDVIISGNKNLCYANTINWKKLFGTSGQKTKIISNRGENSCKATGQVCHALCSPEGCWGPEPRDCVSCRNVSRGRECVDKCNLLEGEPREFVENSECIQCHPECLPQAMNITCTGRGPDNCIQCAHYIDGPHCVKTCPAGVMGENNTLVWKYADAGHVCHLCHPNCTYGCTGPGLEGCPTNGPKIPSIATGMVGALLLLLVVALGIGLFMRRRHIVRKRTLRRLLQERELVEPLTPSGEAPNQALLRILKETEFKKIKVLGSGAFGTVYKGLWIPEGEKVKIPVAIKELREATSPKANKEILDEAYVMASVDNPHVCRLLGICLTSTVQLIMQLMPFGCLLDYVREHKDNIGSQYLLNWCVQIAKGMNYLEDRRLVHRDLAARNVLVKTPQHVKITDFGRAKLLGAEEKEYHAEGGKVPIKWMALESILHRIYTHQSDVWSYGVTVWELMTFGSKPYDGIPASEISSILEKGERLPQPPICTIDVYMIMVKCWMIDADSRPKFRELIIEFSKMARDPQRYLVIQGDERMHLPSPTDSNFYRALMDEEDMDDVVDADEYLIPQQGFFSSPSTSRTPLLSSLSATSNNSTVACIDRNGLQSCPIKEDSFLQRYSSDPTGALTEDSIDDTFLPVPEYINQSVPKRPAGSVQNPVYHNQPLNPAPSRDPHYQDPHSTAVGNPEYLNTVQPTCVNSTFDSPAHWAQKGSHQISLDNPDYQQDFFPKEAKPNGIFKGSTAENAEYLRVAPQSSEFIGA

SMILES | IC50 [1] [nM] | IC50 [2] [nM]
COc1c(-c2ccc(N3CCOCC3)cc2)cc(Cl)c2cn(C(C(=O)Nc3nccs3)c3ncn4c3C[C@@H](F)C4)nc12 (mixture of isomers) [Example 19, 2-[4-Chloro-7-methoxy-6-(4-morpholin-4-ylphenyl)indazol-2-yl]-2-[rac-(6R)-6-fluoro-6,7-dihydro-5H-pyrrolo[1,2-c]imidazol-1-yl]-N-(1,3-thiazol-2-yl)acetamide] | 1 | 7
O=C(Nc1nccs1)C(c1ncn2c1C[C@@H](F)C2)n1cc2c(F)cc(-c3ccc(N4CCOCC4)c(F)c3)cc2n1 (stereo partly drawn) [Example 5, 2-((R)-6-Fluoro-6,7-dihydro-5H-pyrrolo[1,2-c]imidazol-1-yl)-2-(4-fluoro-6-(3-fluoro-4-morpholinophenyl)-2H-indazol-2-yl)-N-(thiazol-2-yl)acetamide] | 1 | 5
O=C(Nc1nccs1)C(c1ncn2c1CCC2)n1cc2c(Cl)cc(-c3ccc(N4CCOCC4)cc3)c(F)c2n1 (stereo not drawn) [Example 10, 2-(4-Chloro-7-fluoro-6-(4-morpholinophenyl)-2H-indazol-2-yl)-2-(6,7-dihydro-5H-pyrrolo[1,2-c]imidazol-1-yl)-N-(thiazol-2-yl)acetamide] | 1 | –
O=C(Nc1nccs1)C(c1ncn2c1CCC2)n1cc2c(F)cc(-c3ccc(N4CCOCC4)c(F)c3)cc2n1 (stereo not drawn) [Example 11, 2-(6,7-Dihydro-5H-pyrrolo[1,2-c]imidazol-1-yl)-2-(4-fluoro-6-(3-fluoro-4-morpholinophenyl)-2H-indazol-2-yl)-N-(thiazol-2-yl)acetamide] | 1 | –
O=C(Nc1nccs1)C(c1ncn2c1CCC2)n1cc2c(Cl)cc(-c3ccc(N4CCOCC4)cc3)c(Cl)c2n1 (stereo not drawn) [Example 14, 2-(4,7-Dichloro-6-(4-morpholinophenyl)-2H-indazol-2-yl)-2-(6,7-dihydro-5H-pyrrolo[1,2-c]imidazol-1-yl)-N-(thiazol-2-yl)acetamide] | 3 | 22
O=C(Nc1nccs1)C(c1ncn2c1CCC2)n1cc2c(Cl)cc(-c3ccc(N4CCOCC4)c(F)c3)c(F)c2n1 (stereo not drawn) [Example 17, 2-(4-Chloro-7-fluoro-6-(3-fluoro-4-morpholinophenyl)-2H-indazol-2-yl)-2-(6,7-dihydro-5H-pyrrolo[1,2-c]imidazol-1-yl)-N-(thiazol-2-yl)acetamide] | 2 | –

Source: US20220315593A1, “EGFR INHIBITORS FOR THE TREATMENT OF CANCER” (Hoffmann-La Roche Inc., priority 2019, published 2022)
